Measurements published in US20200291018A1, “TAM KINASE INHIBITORS” (SYROS PHARMACEUTICALS, INC., priority 2017, published 2020).

Key:
AXL = target: T1, AXL (Homo sapiens, UniProt P30530); test: TR-FRET kinase activity assay, AXL; type: biochemical; conditions: ATP at Km, 60 minutes
T1 sequence (P30530 26-894): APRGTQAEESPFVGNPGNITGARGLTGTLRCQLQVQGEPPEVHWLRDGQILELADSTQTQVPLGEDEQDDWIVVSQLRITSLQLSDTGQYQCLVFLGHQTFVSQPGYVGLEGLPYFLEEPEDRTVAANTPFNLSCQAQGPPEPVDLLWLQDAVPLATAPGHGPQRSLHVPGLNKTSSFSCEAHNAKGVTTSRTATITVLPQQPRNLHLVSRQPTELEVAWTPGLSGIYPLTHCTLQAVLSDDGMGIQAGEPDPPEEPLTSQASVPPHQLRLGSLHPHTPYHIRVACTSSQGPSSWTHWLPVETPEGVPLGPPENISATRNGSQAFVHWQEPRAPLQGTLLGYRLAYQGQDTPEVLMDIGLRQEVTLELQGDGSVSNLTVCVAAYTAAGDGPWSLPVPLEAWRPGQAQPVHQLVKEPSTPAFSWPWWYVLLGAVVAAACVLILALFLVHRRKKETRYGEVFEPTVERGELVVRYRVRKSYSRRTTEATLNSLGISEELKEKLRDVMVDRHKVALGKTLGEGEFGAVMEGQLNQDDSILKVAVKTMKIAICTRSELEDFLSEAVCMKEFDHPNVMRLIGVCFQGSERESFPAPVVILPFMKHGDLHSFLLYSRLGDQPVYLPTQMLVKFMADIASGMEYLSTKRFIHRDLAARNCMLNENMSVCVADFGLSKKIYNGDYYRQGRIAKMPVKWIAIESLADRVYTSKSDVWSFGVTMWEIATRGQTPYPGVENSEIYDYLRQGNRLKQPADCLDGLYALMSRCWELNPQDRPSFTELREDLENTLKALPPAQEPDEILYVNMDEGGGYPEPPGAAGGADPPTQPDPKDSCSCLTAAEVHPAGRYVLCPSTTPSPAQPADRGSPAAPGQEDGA
Method in brief: (§1)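 Enzyme, fluorescent-labeled peptide substrate and compound were mixed, then ATP was added at each enzyme's Km. Buffer was 50 mM HEPES pH 7.5, 10 mM MgCl2, 1 mM EGTA, 0.01% Brij 35, 1 mM DTT at RT. After 60 min, EDTA quench and 30 min with Eu-anti-phosphotyrosine-site antibody; TR-FRET read gave IC50.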

MERTK = target: T2, MERTK (Homo sapiens, UniProt Q12866); test: TR-FRET kinase activity assay, MERTK; type: biochemical; conditions: for IC50: TR-FRET activity assay, ATP at Km, 60 minutes, read-out: Mer IC50; for Mer/Flt3 ratio (FLT3 IC50/Mer IC50): ratio calculated as FLT3 IC50/Mer IC50
T2 sequence (Q12866 21-999): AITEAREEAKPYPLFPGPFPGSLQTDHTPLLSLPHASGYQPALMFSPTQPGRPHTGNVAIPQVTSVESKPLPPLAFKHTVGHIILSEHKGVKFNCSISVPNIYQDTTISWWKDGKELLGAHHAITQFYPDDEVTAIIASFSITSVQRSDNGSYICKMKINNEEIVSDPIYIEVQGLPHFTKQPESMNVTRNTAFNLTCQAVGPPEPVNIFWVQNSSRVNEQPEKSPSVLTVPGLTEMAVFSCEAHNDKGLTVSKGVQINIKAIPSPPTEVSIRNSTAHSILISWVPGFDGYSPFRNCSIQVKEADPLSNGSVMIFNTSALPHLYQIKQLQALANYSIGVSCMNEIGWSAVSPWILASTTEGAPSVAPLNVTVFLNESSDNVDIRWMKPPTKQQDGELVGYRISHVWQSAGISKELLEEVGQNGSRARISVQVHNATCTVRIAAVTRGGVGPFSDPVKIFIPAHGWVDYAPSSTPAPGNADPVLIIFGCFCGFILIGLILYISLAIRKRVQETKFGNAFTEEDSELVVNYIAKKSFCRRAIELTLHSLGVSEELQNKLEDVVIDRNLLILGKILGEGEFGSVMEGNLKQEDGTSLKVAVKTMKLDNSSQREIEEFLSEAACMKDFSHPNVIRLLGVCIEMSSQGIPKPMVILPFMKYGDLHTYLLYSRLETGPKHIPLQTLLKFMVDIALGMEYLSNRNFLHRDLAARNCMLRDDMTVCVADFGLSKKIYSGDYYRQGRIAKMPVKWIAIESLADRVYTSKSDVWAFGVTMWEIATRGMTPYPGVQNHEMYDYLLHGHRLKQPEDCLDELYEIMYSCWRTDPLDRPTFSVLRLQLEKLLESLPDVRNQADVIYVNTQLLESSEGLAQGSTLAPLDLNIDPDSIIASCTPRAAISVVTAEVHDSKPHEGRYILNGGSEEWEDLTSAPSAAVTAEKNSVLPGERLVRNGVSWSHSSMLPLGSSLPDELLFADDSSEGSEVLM
Method in brief: as §1

| IC50 (AXL) [nM] | IC50 (MERTK) [nM] | Mer/Flt3 ratio (FLT3 IC50/Mer IC50) (MERTK) | SMILES |
| --- | --- | --- | --- |
| 1000 to 10000 | ≤ 100 | +++ (a ratio of >100) | COC[C@H](C)Nc1ncc2c(OC3CCOCC3)ncc(-c3ccc(CO)cc3)c2n1 [Compound 335] |
| 1000 to 10000 | 100 to 1000 | ++ (a ratio of between 10 and 100) | CN1C[C@@H](Nc2ncc3c(OC4CCOCC4)ncc([C@H]4CC[C@H](O)CC4)c3n2)CC1=O [Compound 324] |
| 100 to 1000 | ≤ 100 | +++ (a ratio of >100) | COC[C@H](C)Nc1ncc2c(OC3CCOCC3)ncc([C@H]3CC[C@@](O)(C(F)(F)F)CC3)c2n1 [Compound 329] |
| 1000 to 10000 | 1000 to 10000 | + (a ratio of >2.0 and <10) | COC[C@H](C)Nc1ncc2c(OC3CCOCC3)ncc(-c3ccnnc3)c2n1 [Compound 342] |
| 1000 to 10000 | ≤ 100 | +++ (a ratio of >100) | COC[C@H](C)Nc1ncc2c(OC3CCOCC3)ncc(-c3ccc(O)cc3)c2n1 [Compound 301] |
| 1000 to 10000 | ≤ 100 | +++ (a ratio of >100) | COC[C@H](C)Nc1ncc2c(O[C@@H]3CCNCC3(F)F)ncc([C@H]3CC[C@H](O)CC3)c2n1 [Compound 308] |
| 1000 to 10000 | 100 to 1000 | + (a ratio of >2.0 and <10) | COC[C@H](C)Nc1ncc2c(OC3CCOCC3)ncc(C3CCCCN3)c2n1 (stereo partly drawn) [Compound 346] |
| 100 to 1000 | 100 to 1000 | NS (a ratio of ≤2.0) | COC[C@H](C)Nc1ncc2c(OC3CCOCC3)ncc([C@H]3CCCNC3)c2n1 [Compound 326] |
| ≤ 100 | ≤ 100 | ++ (a ratio of between 10 and 100) | CCc1cc(Nc2ncc3c(OC4CCNCC4)ncc([C@H]4CC[C@H](O)CC4)c3n2)ccc1Cl [Compound 300] |
| 1000 to 10000 | 100 to 1000 | ++ (a ratio of between 10 and 100) | CS(=O)(=O)N1CC[C@H](Nc2ncc3c(OC4CCOCC4)ncc([C@H]4CC[C@H](O)CC4)c3n2)C1 [Compound 278] |
| 100 to 1000 | ≤ 100 | + (a ratio of >2.0 and <10) | O[C@H]1CC[C@H](c2cnc(OC3CCOCC3)c3cnc(NCCC(F)(F)F)nc32)CC1 [Compound 286] |
| 1000 to 10000 | 100 to 1000 | ++ (a ratio of between 10 and 100) | COC[C@H](C)Nc1ncc2c(OC3CCOCC3)ncc(-c3cnn([C@@H]4CCN(C)C4)c3)c2n1 [Compound 314] |
| 1000 to 10000 | 1000 to 10000 | + (a ratio of >2.0 and <10) | O=C(O)[C@H]1CC[C@@H](Nc2ncc3c(OC4CCOCC4)ncc([C@H]4CC[C@H](O)CC4)c3n2)CC1 [Compound 353] |
| 1000 to 10000 | ≤ 100 | +++ (a ratio of >100) | CN1C[C@H](Nc2ncc3c(OC4CCOCC4)ncc([C@H]4CC[C@H](O)CC4)c3n2)CC1=O [Compound 323] |
| 1000 to 10000 | ≤ 100 | +++ (a ratio of >100) | COC[C@@H](C)Nc1ncc2c(OC3CC(O)C3)ncc([C@H]3CC[C@H](O)CC3)c2n1 (stereo partly drawn) [Compound 351] |
| 100 to 1000 | ≤ 100 | +++ (a ratio of >100) | CC(C)Nc1ncc2c(OC3CCOCC3)ncc(-c3cccc(S(=O)(=O)N(C)C)c3)c2n1 [Compound 288] |
| ≤ 100 | ≤ 100 | ++ (a ratio of between 10 and 100) | O[C@H]1CC[C@H](c2cnc(OC3CCNCC3)c3cnc(Nc4ccc(Cl)c(Cl)c4)nc32)CC1 [Compound 299] |
| 1000 to 10000 | ≤ 100 | +++ (a ratio of >100) | COC[C@H](C)Nc1ncc2c(OC3CCOCC3)ncc(-c3ccc(N)nc3)c2n1 [Compound 337] |
